# According to US4180655A, “Nitrosourea derivatives” (Suami; Tetsuo, priority 1974, dated 1979):
# Read-outs that look alike come from different tables or passages of the source.
# Tests used:
# Leukemia L1210 cells = assay: Chemotherapeutic effect of nitrosourea derivatives on leukemia L1210 in mice; type: in vivo, mice (BDF1/BDF); design: Volume of ascites, Treated: unit not given here
# From the text: Chemotherapeutic effect of a variety of the nitrosourea derivatives of the formula I according to this invention on leukemia L1210 in mice were investigated by the following method and materials.
# A--BDF1 mice (about 6 week-aged; body weight: 22±1 g); each experimental group was composed of 2 male mice.
# B--BDF1 mice (about 7 week-aged; body weight: 21±2 g); each experimental group was composed of 3 male mice.
# C--BDF mice (about 7 week-aged; body weight: 22±2 g); each experimental group was composed of 2 male mice.
# D--BDF mice (about 6 week-aged; body weight: 21±2 g); each experimental group was composed of 3 male mice.
# E--BDF1 mice (about six week-aged; body weight 20±1 g); each experimental group was composed of 3 female mice.
# F--BDF1 mice (about six week-aged; body weight 21±1 g); each experimental group was composed of 3 male mice.
# A--Leukemia L1210 cells (2.1×10^6 cells/ 0.05 ml/mouse) were intraperitoneally inoculated.
# B--Leukemia L1210 cells (1.9×10^6 cells/0.05 ml/mouse) were intraperitoneally inoculated.
# C--Leukemia L1210 cells (1.2×10^6 cells/0.05 ml/mouse) were intraperitoneally inoculated.
# A--The test compound was dissolved in a physiological saline solution and administered intraperitoneally at a volume of 0.1 ml/mouse. The administration was made at once/day, from 24 hours after i.p. inoculation of L1210 cells, for 3 days. The effect of test compound was assessed by mean survival days of mice, percent increase in life-span, anatomical findings involving the volume of ascites.
# B--The same as that used in A except that the drug administration was continued for 5 days.
# C--The same as that used in A except that the test compound was suspended in 0.5% CMC solution and that the drug administration was continued for 5 days.
# D--The same as that used in A except that the test compound was dissolved in distilled water for injection purposes.
# The percentage increase in life-span (ILS) was calculated as follows:
# Percentage increase in life-span (ILS)=T-C/C×100
# T: The mean survival days of the treated animals.
# C: The mean survival days of the untreated control.
# [1] = LD50 value / toxicity in the intraperitoneal administration to BDF1 mice; details: mouse, in vivo, ip
# From the text: The new nitrosourea derivatives according to this invention are further characterized by their low toxicity, thus satisfying their practical application for treating leukemia and tumor diseases.
# [2] = 0.2 mg/kg i.p. once/day for 3 days (procedure A, saline)
# [3] = 0.5 mg/kg i.p. once/day for 3 days (procedure A, saline)
# [4] = 1 mg/kg i.p. once/day for 3 days (procedure A, saline)
# [5] = 2 mg/kg i.p. once/day for 3 days (procedure A, saline)
# [6] = 4 mg/kg i.p. once/day for 3 days (procedure A, saline)
# [7] = 5 mg/kg i.p. once/day for 3 days (procedure A, saline)
# [8] = 6.25 mg/kg i.p. once/day for 3 days (procedure A, saline)
# [9] = 8 mg/kg i.p. once/day for 3 days (procedure A, saline)
# [10] = 10 mg/kg i.p. once/day for 3 days (procedure A, saline)
# [11] = 50 mg/kg i.p. once/day for 3 days (procedure A, saline)
# [12] = 100 mg/kg i.p. once/day for 3 days (procedure A, saline)
# [13] = 150 mg/kg i.p. once/day for 3 days (procedure A, saline)
# [14] = 200 mg/kg i.p. once/day for 3 days (procedure A, saline)
# [15] = 100 mg/kg i.p. once/day for 3 days (procedure D, distilled water)
# [16] = 200 mg/kg i.p. once/day for 3 days (procedure D, distilled water)
# [17] = 400 mg/kg i.p. once/day for 3 days (procedure D, distilled water)
smiles,measurement,setting,value
"O=NN(CCCl)C(=O)N[C@@H]1O[C@H](CO)[C@@H](O)[C@H](O)[C@H]1O [Compound 1, 1-(2-chloroethyl)-3-(β-D-glucopyranosyl)-1-nitrosourea]","Survival days, Treated (mean)",Leukemia L1210 cells; [2],12.0 days
same,"Volume of ascites, Treated",Leukemia L1210 cells; [2],4.2
same,"Survival days, Treated (mean)",Leukemia L1210 cells; [3],12.5 days
same,"Volume of ascites, Treated",Leukemia L1210 cells; [3],4.2
same,"Survival days, Treated (mean)",Leukemia L1210 cells; [4],12.9 days
same,"Volume of ascites, Treated",Leukemia L1210 cells; [4],5.0
same,"Survival days, Treated (mean)",Leukemia L1210 cells; [5],15.3 days
same,"Volume of ascites, Treated",Leukemia L1210 cells; [5],2.5
same,"Survival days, Treated (mean)",Leukemia L1210 cells; [6],40.3 days
same,"Volume of ascites, Treated",Leukemia L1210 cells; [6],0
same,"Survival days, Treated (mean)",Leukemia L1210 cells; [7],15.3 days
same,"Volume of ascites, Treated",Leukemia L1210 cells; [7],1.5
same,"Survival days, Treated (mean)",Leukemia L1210 cells; [8],> 40.1 days
same,"Volume of ascites, Treated",Leukemia L1210 cells; [8],0
same,"Survival days, Treated (mean)",Leukemia L1210 cells; [9],95.9 days
same,"Volume of ascites, Treated",Leukemia L1210 cells; [9],0
same,"Survival days, Treated (mean)",Leukemia L1210 cells; [10],95.9 days
same,"Volume of ascites, Treated",Leukemia L1210 cells; [10],0
same,ILS at 0.2 mg/kg,"Leukemia L1210 cells; Mus musculus, L1210, ip, 72 h, 0.2 mg/kg i.p. once/day for 3 days (procedure A, saline), read-out: Percentage increase in life-span (ILS)",29%
same,ILS at 0.5 mg/kg,"Leukemia L1210 cells; Mus musculus, L1210, ip, 72 h, 0.5 mg/kg i.p. once/day for 3 days (procedure A, saline), read-out: Percentage increase in life-span (ILS)",34.4%
same,ILS at 1 mg/kg,"Leukemia L1210 cells; Mus musculus, L1210, ip, 72 h, 1 mg/kg i.p. once/day for 3 days (procedure A, saline), read-out: Percentage increase in life-span (ILS)",38.7%
same,ILS at 2 mg/kg,"Leukemia L1210 cells; Mus musculus, L1210, ip, 72 h, 2 mg/kg i.p. once/day for 3 days (procedure A, saline), read-out: Percentage increase in life-span (ILS)",64.5%
same,ILS at 4 mg/kg,"Leukemia L1210 cells; Mus musculus, L1210, ip, 72 h, 4 mg/kg i.p. once/day for 3 days (procedure A, saline), read-out: Percentage increase in life-span (ILS)",333%
same,ILS at 5 mg/kg,"Leukemia L1210 cells; Mus musculus, L1210, ip, 72 h, 5 mg/kg i.p. once/day for 3 days (procedure A, saline), read-out: Percentage increase in life-span (ILS)",64.5%
same,ILS at 6.25 mg/kg,"Leukemia L1210 cells; Mus musculus, L1210, ip, 72 h, 6.25 mg/kg i.p. once/day for 3 days (procedure A, saline), read-out: Percentage increase in life-span (ILS)",> 331%
same,ILS at 8 mg/kg,"Leukemia L1210 cells; Mus musculus, L1210, ip, 72 h, 8 mg/kg i.p. once/day for 3 days (procedure A, saline), read-out: Percentage increase in life-span (ILS)",931%
same,ILS at 10 mg/kg,"Leukemia L1210 cells; Mus musculus, L1210, ip, 72 h, 10 mg/kg i.p. once/day for 3 days (procedure A, saline), read-out: Percentage increase in life-span (ILS)",931%
same,LD50,[1],~25 mg/kg
"CN(N=O)C(=O)N[C@@H]1O[C@H](CO)[C@@H](O)[C@H](O)[C@H]1O [Compound 11, 1-(β-D-glucopyranosyl)-3-methyl-3-nitrosourea, reference compound]","Survival days, Treated (mean)",Leukemia L1210 cells; [11],12.0 days
same,"Volume of ascites, Treated",Leukemia L1210 cells; [11],2.8
same,"Survival days, Treated (mean)",Leukemia L1210 cells; [12],13.9 days
same,"Volume of ascites, Treated",Leukemia L1210 cells; [12],4.6
same,"Survival days, Treated (mean)",Leukemia L1210 cells; [13],14.1 days
same,"Volume of ascites, Treated",Leukemia L1210 cells; [13],1.9
same,"Survival days, Treated (mean)",Leukemia L1210 cells; [14],16.6 days
same,"Volume of ascites, Treated",Leukemia L1210 cells; [14],1.4
same,ILS at 50 mg/kg,"Leukemia L1210 cells; Mus musculus, L1210, ip, 72 h, 50 mg/kg i.p. once/day for 3 days (procedure A, saline), read-out: Percentage increase in life-span (ILS)",55.6%
same,ILS at 100 mg/kg,"Leukemia L1210 cells; Mus musculus, L1210, ip, 72 h, 100 mg/kg i.p. once/day for 3 days (procedure A, saline), read-out: Percentage increase in life-span (ILS)",80.7%
same,ILS at 150 mg/kg,"Leukemia L1210 cells; Mus musculus, L1210, ip, 72 h, 150 mg/kg i.p. once/day for 3 days (procedure A, saline), read-out: Percentage increase in life-span (ILS)",83.4%
same,ILS at 200 mg/kg,"Leukemia L1210 cells; Mus musculus, L1210, ip, 72 h, 200 mg/kg i.p. once/day for 3 days (procedure A, saline), read-out: Percentage increase in life-span (ILS)",108%
"CN(N=O)C(=O)N[C@@H](CO)[C@@H](O)[C@H](O)[C@H](O)CO [Compound 12, N-carbamoyl-N'-methyl-N'-nitroso-D-glucosaminol, reference compound]","Survival days, Treated (mean)",Leukemia L1210 cells; [15],13.9 days
same,"Volume of ascites, Treated",Leukemia L1210 cells; [15],3.0
same,"Survival days, Treated (mean)",Leukemia L1210 cells; [16],15.0 days
same,"Volume of ascites, Treated",Leukemia L1210 cells; [16],4.0
same,"Survival days, Treated (mean)",Leukemia L1210 cells; [17],13.4 days
same,"Volume of ascites, Treated",Leukemia L1210 cells; [17],3.4
same,ILS at 100 mg/kg,"Leukemia L1210 cells; Mus musculus, L1210, ip, 72 h, 100 mg/kg i.p. once/day for 3 days (procedure D, distilled water), read-out: Percentage increase in life-span (ILS)",30%
same,ILS at 200 mg/kg,"Leukemia L1210 cells; Mus musculus, L1210, ip, 72 h, 200 mg/kg i.p. once/day for 3 days (procedure D, distilled water), read-out: Percentage increase in life-span (ILS)",40%
same,ILS at 400 mg/kg,"Leukemia L1210 cells; Mus musculus, L1210, ip, 72 h, 400 mg/kg i.p. once/day for 3 days (procedure D, distilled water), read-out: Percentage increase in life-span (ILS)",25%
